Tested on: PAL (salicylic acid pathway)
Experiment: Transcriptional response of PAL in Carrizo citrange plants exposed to the volatile
Assay type: in vivo
Conditions: intact Carrizo citrange plants exposed 24 h; n=6
Procedure: Two weeks after seed germination, the seedlings were individually transplanted into pots (8×8×8 cm). The plants were kept in a greenhouse with a plastic cover at approximate climatic conditions of 25±5° C., a relative humidity of 65%±5%, and a natural light photoperiod, about 14:10 h (light:dark). Carrizo citrange plants that had not received any pesticide treatment at 8 weeks of age (approximately 20 cm tall) were used. The volatile (Z)-3-hexenyl propanoate was obtained from Sigma-Aldrich (St. Louis, Mo., USA). The volatile was exposed by using a 2×2 cm piece of filter paper on which 10 μl of a solution containing the corresponding volatile at a concentration of 1:10,000 [(Z)-3-hexenyl propanoate:methanol] was impregnated as an emitting source of the corresponding volatile (Pérez-Hedo, M. et al. Biocontrol, 63: 203-213 (2018)). […]
The methodology followed for the extraction and quantification of gene expression was described by Pérez-Hedo et al. Journal of Pest Science 3: 543-554 (2015). The primers used were forward primer: 5′-[…]-3′ (SEQ ID NO: 11) and reverse primer: 5′-[…]-3′ (SEQ ID NO: 12) for the quantification of LOX2, forward primer: 5′-[…]-3′ (SEQ ID NO: 13) and reverse primer: 5′-[…]-3′ (SEQ ID NO: 14) for PAL and forward primer: 5′-[…]-3′ (SEQ ID NO: 15) and reverse primer: 5′-[…]-3′ (SEQ ID NO: 16) for the NPR5 gene. […]

CC/C=C\CCOC(=O)CC [(Z)-3-hexenyl propanoate]
Transcriptional response of PAL compared to control: significantly overexpressed

Reference: patent US20230240290A1, “USE OF (Z)-3-HEXENYL ESTERS AND METHOD FOR PROTECTING PLANTS AGAINST PESTS” (UNIVERSITAT POLITÈCNICA DE VALÈNCIA, priority 2020, published 2023)
